Biological target: Squalene monooxygenase (Sus scrofa)
Assay: In vitro inhibition of pig liver microsomal squalene epoxidase (SE) by measuring the extend of cholesterol radiolabeling after incubation with [14C]mevalonate

Row | Structure (SMILES) | IC50
1 | CCN(C/C=C/C#CC(C)(C)C)Cc1cccc(OC[Si](C)(C)c2ccc(N=[N+]=[N-])cc2)c1 [(3-{[(4-Azido-phenyl)-dimethyl-silanyl]-methoxy}-benzyl)-(6,6-dimethyl-hept-2-en-4-ynyl)-ethyl-amine] | 520 nM
2 | CCN(CC#Cc1ccccc1N=[N+]=[N-])Cc1cccc(OCc2cc(-c3ccsc3)cs2)c1 [[3-(2-Azido-phenyl)-prop-2-ynyl]-[3-([3,3']bithiophenyl-5-ylmethoxy)-benzyl]-ethyl-amine] | > 100000 nM
3 | CCN(CC#Cc1cccc(N=[N+]=[N-])c1)Cc1cccc(OCc2cc(-c3ccsc3)cs2)c1 [[3-(3-Azido-phenyl)-prop-2-ynyl]-[3-([3,3']bithiophenyl-5-ylmethoxy)-benzyl]-ethyl-amine] | 270 nM
4 | CCN(CC#Cc1ccc(N=[N+]=[N-])cc1)Cc1cccc(OCc2cc(-c3ccsc3)cs2)c1 [[3-(4-Azido-phenyl)-prop-2-ynyl]-[3-([3,3']bithiophenyl-5-ylmethoxy)-benzyl]-ethyl-amine] | 960 nM
5 | CCN(CC#Cc1ccccc1)Cc1cccc(OCc2cc(-c3ccsc3)cs2)c1 [[3-([3,3']Bithiophenyl-5-ylmethoxy)-benzyl]-ethyl-(3-phenyl-prop-2-ynyl)-amine] | 100 nM
